According to the supplement of paper PMC10307832:

What was measured:
Experiment in all cases: relative viability (nuclei count vs DMSO), 5 days (fraction); higher = more cells survive
QS11 + Trametinib = compound: C1CC2=C(C1)C=C(C=C2)OC3=NC(=C4C(=N3)N(C=N4)CC5=CC=C(C=C5)C6=CC=CC=C6)N[C@@H](CC7=CC=CC=C7)CO [QS11] + CC(=O)Nc1cccc(-n2c(=O)n(C3CC3)c(=O)c3c(Nc4ccc(I)cc4F)n(C)c(=O)c(C)c32)c1 [Trametinib] (partner 0.02 µM)
In short: (§1)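 Cells from lung cancer lines were seeded into 1536-well plates and, one day later, dosed by pin tool. Treatments were either a single drug or a fixed dose of an anchor drug with five library-drug doses (not always all listed) in √10 steps. After 5 days, nuclei were stained in a one-step fixation (final 0.05% Triton X-100, 1% formaldehyde, 1 ug/ml Hoechst) and counted on 4× images, and relative viability is the treated-to-vehicle nuclei ratio, as the median of duplicate plates.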

Darinaparsin + AZD7762 = compound: C[As](C)SC[C@H](NC(=O)CC[C@H](N)C(=O)O)C(=O)NCC(=O)O [Darinaparsin] + NC(=O)Nc1cc(-c2cccc(F)c2)sc1C(=O)N[C@H]1CCCNC1 [AZD7762] (partner 0.2 µM)
In short: as §1

AZ628 + Trametinib = compound: CC1=C(C=C(C=C1)NC(=O)C2=CC(=CC=C2)C(C)(C)C#N)NC3=CC4=C(C=C3)N=CN(C4=O)C [AZ628] + CC(=O)Nc1cccc(-n2c(=O)n(C3CC3)c(=O)c3c(Nc4ccc(I)cc4F)n(C)c(=O)c(C)c32)c1 [Trametinib] (partner 0.02 µM)
In short: as §1

Darinaparsin + Olaparib = compound: C[As](C)SC[C@H](NC(=O)CC[C@H](N)C(=O)O)C(=O)NCC(=O)O [Darinaparsin] + O=C(c1cc(Cc2n[nH]c(=O)c3ccccc23)ccc1F)N1CCN(C(=O)C2CC2)CC1 [Olaparib] (partner 8 µM)
In short: as §1

| Cell Line | relative viability (QS11 + Trametinib; first compound 0.08 µM) | relative viability (QS11 + Trametinib; first compound 0.253 µM) | relative viability (QS11 + Trametinib; first compound 2.53 µM) | relative viability (QS11 + Trametinib; first compound 8 µM) | relative viability (Darinaparsin + AZD7762; first compound 0.08 µM) | relative viability (Darinaparsin + AZD7762; first compound 0.8 µM) | relative viability (Darinaparsin + AZD7762; first compound 2.53 µM) | relative viability (Darinaparsin + AZD7762; first compound 8 µM) | relative viability (AZ628 + Trametinib; first compound 0.08 µM) | relative viability (AZ628 + Trametinib; first compound 0.253 µM) | relative viability (AZ628 + Trametinib; first compound 0.8 µM) | relative viability (AZ628 + Trametinib; first compound 2.53 µM) | relative viability (AZ628 + Trametinib; first compound 8 µM) | relative viability (Darinaparsin + Olaparib; first compound 0.08 µM) | relative viability (Darinaparsin + Olaparib; first compound 0.8 µM) | relative viability (Darinaparsin + Olaparib; first compound 2.53 µM) | relative viability (Darinaparsin + Olaparib; first compound 8 µM) | relative viability (QS11 + Trametinib; first compound 0.8 µM) |
| --- | --- | --- | --- | --- | --- | --- | --- | --- | --- | --- | --- | --- | --- | --- | --- | --- | --- | --- |
| NCI-H3122 | 0.213 | 0.239 | 0.253 | 0.343 | 1.14 | 1 | 0.937 | 1.34 | 0.157 | 0.143 | 0.159 | 0.138 | 0.132 | 0.796 | 0.589 | 0.572 | 0.791 | – |
| ChaGo-K-1 | – | 0.984 | 0.886 | 0.931 | 0.979 | 0.931 | 0.789 | 1.03 | 0.911 | 0.879 | 0.881 | 0.873 | 0.839 | 0.469 | 0.417 | 0.385 | 0.401 | 0.972 |
| NCI-H2085 | 0.512 | 0.483 | 0.513 | 0.508 | 0.91 | 0.934 | 0.892 | 1.17 | 0.502 | 0.479 | 0.628 | 0.601 | 0.481 | 0.866 | 0.775 | 0.792 | 0.745 | 0.43 |
| NCI-H727 | 0.416 | 0.404 | 0.406 | 0.396 | 0.556 | 0.599 | 0.598 | 0.581 | 0.338 | – | – | 0.385 | 0.357 | 0.388 | 0.561 | 0.726 | 0.612 | 0.38 |
| NCI-H2405 | 0.628 | 0.585 | 0.719 | 0.79 | 1.04 | 0.666 | 0.68 | 0.817 | 0.387 | 0.319 | 0.277 | 0.286 | 0.313 | 0.992 | 0.865 | 0.841 | 0.914 | 0.731 |
| NCI-H1666 | 0.798 | 0.852 | 0.8 | 0.749 | 0.706 | 0.897 | 0.915 | 0.873 | 0.758 | 0.697 | 0.841 | 0.6 | 0.777 | 0.734 | 0.746 | 0.834 | 0.72 | 0.868 |
| BEN | 1.06 | 1.11 | 1.12 | 1.11 | 0.691 | 0.729 | 0.648 | 0.797 | 1.12 | 1.01 | 0.806 | 1.02 | 0.783 | 1.21 | 0.993 | 1.06 | 1.08 | 1.08 |
| HARA | 0.652 | – | 0.48 | 0.634 | 0.417 | – | 0.335 | 0.371 | 0.209 | 0.168 | 0.15 | 0.172 | 0.356 | 0.598 | – | 0.769 | 0.779 | 0.562 |
| RERF-LC-KJ | 0.825 | 0.902 | 0.865 | 0.76 | 0.92 | 0.989 | 0.865 | 1.19 | 0.762 | 0.719 | 0.824 | 0.835 | 0.736 | 1.12 | 0.859 | 0.924 | 0.775 | 0.843 |
| NCI-H1975 | 0.329 | 0.246 | 0.424 | 0.327 | 0.751 | 0.684 | 0.662 | 0.741 | 0.331 | 0.272 | 0.228 | 0.259 | 0.288 | 1.09 | 0.782 | 0.808 | 1.02 | 0.328 |
| EPLC-272H | – | 0.32 | 0.28 | 0.3 | 0.206 | 0.176 | 0.117 | 0.215 | 0.26 | 0.207 | 0.222 | 0.189 | 0.17 | 0.659 | 0.958 | 0.514 | 0.615 | 0.3 |
| SW 900 | 0.797 | 0.724 | 0.721 | 0.453 | 0.644 | – | 0.549 | 0.6 | 0.506 | 0.663 | 0.568 | 0.555 | 0.309 | 0.837 | – | 0.85 | 0.773 | 0.724 |
| HCC-15 | 0.307 | 0.388 | 0.319 | 0.314 | 1.48 | 1.32 | 1.11 | 1.12 | 0.334 | 0.291 | 0.272 | 0.25 | 0.243 | 0.762 | 0.712 | 0.738 | 0.722 | 0.335 |
| NCI-H1915 | 0.292 | 0.292 | 0.288 | 0.309 | 0.768 | 0.738 | 0.674 | 0.729 | 0.139 | 0.128 | 0.109 | 0.144 | 0.0954 | 0.259 | 0.22 | 0.269 | 0.272 | – |
| NCI-H2347 | 0.27 | 0.292 | 0.313 | 0.286 | 0.668 | 0.583 | 0.734 | 0.871 | 0.233 | 0.277 | 0.261 | 0.256 | 0.27 | 0.646 | 0.472 | 0.559 | 0.577 | 0.273 |
| EKVX | 0.288 | 0.618 | 0.306 | 0.321 | 0.817 | 0.739 | 0.726 | 0.82 | 0.368 | 0.227 | 0.248 | 0.273 | 0.195 | 0.878 | 0.697 | 0.801 | 0.735 | 0.3 |
| LC-2-ad | 0.906 | 0.985 | 0.843 | 0.962 | 1.07 | 0.859 | 0.679 | 1.02 | 0.731 | 0.669 | 0.529 | 0.601 | 0.427 | 0.739 | 0.748 | 0.669 | 0.719 | 0.606 |
